Reference: US11518764B2, “Substituted heteroaryls as inhibitors of the BCL6 BTB domain protein-protein interaction” (Ontario Institute for Cancer Research (OICR), priority 2018, dated 2022)

Key:
BCL6 BTB domain = BCL6 BTB domain (Homo sapiens (Human), UniProt P41182); assay: Surface plasmon resonance (SPR) assay; type: binding; conditions: BCL6 BTB domain captured on SA chip, single cycle kinetics
Karpas422 cells = assay: Tumor cell growth inhibition assay; type: cell-based; conditions: Homo sapiens, KARPAS-422, 144 h, read-out: Tumor Growth Inhibition in Karpas-422 (IC50, uM), Karpas422 cells, six days, ATPlite
Summary of the method: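 Growth inhibition was measured by ATPlite luminescence after six days of culture at 37° C. in 5% CO2. Karpas422 cells were seeded at 2,000 per well in Alpha-MEM plus 10% FBS. Compounds were given as a 10-point concentration series with a highest dose of 5 uM.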

[1] = tested on: BCL6 reporter construct (3xBCL6-TK-Luc) in SuDHL4 cells; assay: Cell-based luciferase assay; conditions: Homo sapiens, SU-DHL-4, 48 h, read-out: Luciferase-Assay EC50, uM), SuDHL4-3xBCL6-TK-Luc cells, two days, high dose 10 uM
Summary of the method: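 SuDHL4 cells stably carrying a 3×BCL6-site TK-promoter firefly luciferase reporter, seeded at 15,000 cells/well, were dosed over a 10-point range (top 10 uM) and grown two days at 37 °C, 5% CO2. Luminescence then read after adding neolite reagent at room temperature.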

Compound	Kd (BCL6 BTB domain) [nM]	IC50 (Karpas422 cells) [µM]	EC50 [1] [µM]
CN1CCOC2(CCN(c3cc(NC(=O)Cn4cc(-c5cc(F)c(O)c(C(N)=O)c5)c5c(=O)n(C)cnc54)c(Cl)cn3)C2)C1 (stereo not drawn) [Compound I-177]	5.88	0.331	0.629
C[C@@H](CO)Nc1cc(NC(=O)Cn2cc(-c3cc(Cl)c(O)c(C(N)=O)c3)c3c(=O)n(C)cnc32)c(Cl)cn1 [Compound I-198]	21.7	3.02	5.82
CN1CCC2(C1)CN(c1cc(NC(=O)Cn3cc(-c4cc(Cl)c(O)c(C(N)=O)c4)c4c(=O)n(C)cnc43)c(Cl)cn1)CCO2 (stereo not drawn) [Compound I-133]	30	0.199	0.137
Cc1cc(-c2cn(CC(=O)Nc3cc(N4CCOCC4)ncc3Cl)c3ncn(C)c(=O)c23)cc(C(N)=O)c1O [Compound I-4, 5-(7-(2-((5-chloro-2-morpholinopyridin-4-yl)amino)-2-oxoethyl)-3-methyl-4-oxo-4,7-dihydro-3H-pyrrolo[2,3-d]pyrimidin-5-yl)-2-hydroxy-3-methylbenzamide]	279	0.525	1.8
C[C@H]1CN(CC2CC2)CCN1c1cc(NC(=O)Cn2cc(-c3cc(F)c(O)c(C(N)=O)c3)c3c(=O)n(C)cnc32)c(Cl)c(F)n1 [Compound I-445]	7.32	0.0622	0.0854
Cn1ccc2c(c(-c3cc(F)c(O)c(C(N)=O)c3)cn2CC(=O)Nc2cc(N3CCOCC3)ncc2Cl)c1=O [Compound I-140]	317	1.28	1.33
Cc1cc(-c2cn(CC(=O)Nc3cc(N4CCOC[C@@H]4C)ncc3Cl)c3ccn(C)c(=O)c23)cc(C(N)=O)c1O [Compound I-139]	3270	> 10	8.35
